In article PMC4468202, “Improved Visualization and Specific Binding for Metabotropic Glutamate Receptor Subtype 1 (mGluR1) Using [^11C]ITMM with Ultra-High Specific Activity in Small-Animal PET” (PLoS ONE, 2015):
Like-named read-outs stand apart in the source and are kept apart here.

What was measured:
[1] = Metabolite analysis: fraction of unchanged [^11C]ITMM in the plasma; type: in vivo, rat; conditions: for unchanged [^11C]ITMM in the plasma: the two SAs
Procedure: (§1) A bolus (0.5 mL) of [^11C]ITMM with conventional or ultra-high SA was injected for 10 s via a catheter inserted in the tail vein. Dynamic emission scans in three-dimensional list mode were performed for 90 min (10 s x 12 frames, 20 s x 3 frames, 30 s x 3 frames, 60 s x 3 frames, 150 s x 3 frames, and 300 s x 15 frames). For counting radioactivity, blood samples were manually acquired at intervals of 10 s (0.05 mL for 50 s), 1-min intervals (0.05 mL for 5 min), and then at 10 (0.05 mL), 15 (0.2 mL), 30 (0.3 mL), 60 (0.4 mL), and 90 min (0.5 mL) after the PET scan started. For metabolite analysis, six samples of blood were obtained at 1 (0.02 mL), 5 (0.02 mL), 15 (0.05 mL), 30 (0.1 mL), 60 (0.2 mL), and 90 min (0.3 mL) after the injection. Blood samples were centrifuged at 13,000g at 4°C to separate the plasma. Levels of radioactivity in the whole blood and plasma were counted using a 1480 Wizard auto-gamma scintillation counter (Perkin-Elmer, Waltham, MA, USA). The radioactivity was corrected for decay.
Metabolite analysis was performed as described previously. Briefly, whole blood samples were treated to separate the plasma, which was deproteinized with an equivalent amount of acetonitrile. An aliquot of the supernatant obtained from the plasma was analyzed by HPLC with a radiation detector [23]. Plasma protein binding was not determined in the present study. The time curves for the fraction of unchanged [^11C]ITMM in the plasma were fitted using three exponential equations, and subsequently used for kinetic analysis.

mGluR1 [2] = molecular target: T1, mGluR1 (Rattus norvegicus, UniProt P23385); assay: Small-animal PET with [^11C]ITMM: time-activity curves, radioactive uptake (SUV) in brain regions; type: in vivo; parameters: from tissue; host or cells: living SD rat brain (in vivo PET)
T1 sequence (P23385 19-1199): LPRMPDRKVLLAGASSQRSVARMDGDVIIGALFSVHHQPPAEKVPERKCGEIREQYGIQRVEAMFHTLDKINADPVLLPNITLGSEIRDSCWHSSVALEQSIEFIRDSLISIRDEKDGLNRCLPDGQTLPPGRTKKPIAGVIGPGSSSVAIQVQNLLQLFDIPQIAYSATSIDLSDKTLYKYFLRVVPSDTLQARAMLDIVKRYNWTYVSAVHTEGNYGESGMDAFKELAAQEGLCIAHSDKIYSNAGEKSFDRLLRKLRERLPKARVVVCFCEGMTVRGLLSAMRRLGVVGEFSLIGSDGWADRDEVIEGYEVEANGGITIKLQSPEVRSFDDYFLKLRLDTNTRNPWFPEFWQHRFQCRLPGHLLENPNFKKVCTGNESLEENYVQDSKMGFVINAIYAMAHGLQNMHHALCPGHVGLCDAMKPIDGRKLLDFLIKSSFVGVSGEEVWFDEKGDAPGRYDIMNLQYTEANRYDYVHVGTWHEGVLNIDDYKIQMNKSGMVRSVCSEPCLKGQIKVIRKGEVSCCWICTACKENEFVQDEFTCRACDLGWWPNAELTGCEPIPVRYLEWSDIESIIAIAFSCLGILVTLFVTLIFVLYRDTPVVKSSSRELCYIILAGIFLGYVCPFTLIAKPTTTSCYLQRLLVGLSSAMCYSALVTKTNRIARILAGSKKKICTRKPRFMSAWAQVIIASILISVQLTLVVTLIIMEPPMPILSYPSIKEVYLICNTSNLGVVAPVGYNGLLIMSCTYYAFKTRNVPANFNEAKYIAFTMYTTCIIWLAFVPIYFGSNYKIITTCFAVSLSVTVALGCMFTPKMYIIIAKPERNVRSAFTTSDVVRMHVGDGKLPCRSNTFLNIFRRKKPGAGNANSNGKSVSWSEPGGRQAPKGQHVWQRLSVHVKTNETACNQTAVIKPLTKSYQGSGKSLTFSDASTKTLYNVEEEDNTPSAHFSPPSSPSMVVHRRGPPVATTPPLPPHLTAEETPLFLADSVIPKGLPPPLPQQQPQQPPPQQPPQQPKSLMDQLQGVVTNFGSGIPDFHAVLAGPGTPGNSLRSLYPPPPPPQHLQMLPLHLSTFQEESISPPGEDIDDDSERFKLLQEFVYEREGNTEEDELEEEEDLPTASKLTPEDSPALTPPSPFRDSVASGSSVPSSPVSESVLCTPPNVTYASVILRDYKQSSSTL
Procedure: Subsequently, a SD rat was secured in a custom-designed chamber and placed in a small-animal PET scanner (Inveon, Siemens Medical Solutions, Knoxville, TN, USA). Body temperature was maintained using a 40°C water circulation system (T/Pump TP401, Gaymar Industries, Orchard Park, NY, USA). A 24-gauge intravenous catheter (Terumo Medical Products, Tokyo, Japan) was placed in the tail vein of the rat for a bolus injection.
as §1
PET dynamic images were reconstructed with filtered back projection using a Hunning filter with a Nyquist cut-off of 0.5 cycle/pixel. PET/MRI fused images were acquired by PMOD version 3.4 (PMOD Technologies, Zurich, Switzerland). To generate the time-activity curves (TACs) of specified brain regions, volumes of interest (VOIs) were drawn encompassing the cerebellum, hippocampus, thalamus, striatum, cingulate cortex, substantia nigra, and pons. The radioactivity was decay-corrected to the injection time and is expressed as the standardized uptake value (SUV), which was normalized to the injected radioactivity and body weight. SUV was calculated according to the following formula: SUV = (radioactivity per milliliter tissue / injected radioactivity) × gram body weight.

mGluR1 [3] = molecular target: T1, mGluR1; assay: Estimation of equilibrium state from tissue-to-plasma concentration ratios C t'(t)/C P'(t); type: in vivo; parameters: from tissue; host or cells: living SD rat brain (in vivo PET)
Procedure: Estimations of the equilibrium state of [^11C]ITMM in each brain region were obtained using averaged plasma input functions and averaged tissue TACs. Theoretical radioactive concentrations in each brain region (C t ’) and the plasma input function of [^11C]ITMM (C P ’) were estimated using averaged measurements extracted between 5 and 90 min after the injection and subjected to three exponential least square fitting [Radioactivity (t) = A*exp(-at) + B*exp(-bt) + C*exp(-ct)].
The estimations over 90 min after the injection were calculated by extrapolating based on the equation as described above. […]

mGluR1 [4] = molecular target: T1, mGluR1; parameters: from tissue; host or cells: cerebellum homogenate; method as in PMID 22316010; conditions: affinity for mGluR1; cited from earlier work
mGluR1 [5] = tested on: mGluR1; parameters: method as in PMID 23804329; conditions: cited from earlier work; for total distribution volume (V T): human brain
[6] = cingulate cortex, conventional SA
[7] = cingulate cortex, ultra-high SA
[8] = substantia nigra, conventional SA
[9] = substantia nigra, ultra-high SA

**Q.** What does the source list for `CC(C)Nc1cc(-c2csc(N(C)C(=O)c3ccc(O[11CH3])cc3)n2)ncn1` [[^11C]ITMM, N-[4-[6-(isopropylamino)pyrimidin-4-yl]-1,3-thiazol-2-yl]-4-[^11C]methoxy-N-methyl-benzamide]?
**A.** Unchanged form in the plasma ([1]; 1 min after injection, conventional SA): 95.2 ± 1.2%; Unchanged form in the plasma ([1]; 1 min after injection, ultra-high SA): 97.3 ± 0.6%; Unchanged form in the plasma ([1]; 5 min after injection, conventional SA): 74.0 ± 2.1%; Unchanged form in the plasma ([1]; 5 min after injection, ultra-high SA): 77.1 ± 3.2%; Unchanged form in the plasma ([1]; 15 min after injection, conventional SA): 53.7 ± 2.6%; unchanged [^11C]ITMM in the plasma ([1]; 15 min after injection): roughly 55%; Unchanged form in the plasma ([1]; 15 min after injection, ultra-high SA): 56.2 ± 4.0%; Unchanged form in the plasma ([1]; 30 min after injection, conventional SA): 36.8 ± 2.6%; Unchanged form in the plasma ([1]; 30 min after injection, ultra-high SA): 40.0 ± 4.0%; Unchanged form in the plasma ([1]; 60 min after injection, conventional SA): 21.7 ± 2.0%; Unchanged form in the plasma ([1]; 60 min after injection, ultra-high SA): 24.7 ± 2.9%; Unchanged form in the plasma ([1]; 90 min after injection, conventional SA): 15.7 ± 1.3%; unchanged [^11C]ITMM in the plasma ([1]; 90 min after injection): roughly 15%; Unchanged form in the plasma ([1]; 90 min after injection, ultra-high SA): 18.2 ± 2.5%; AUC (mGluR1 [2]; cerebellum, conventional SA): 243.2 ± 9.2 SUV · min; maximum uptake (mGluR1 [2]; cerebellum, conventional SA): 3.0 SUV; AUC (mGluR1 [2]; cerebellum, ultra-high SA): 269.9 ± 15.8 SUV · min; maximum uptake (mGluR1 [2]; cerebellum, ultra-high SA): 3.4 SUV; AUC (mGluR1 [2]; [6]): 156.9 ± 5.3 SUV · min; maximum uptake (mGluR1 [2]; [6]): 2.0 SUV; AUC (mGluR1 [2]; [7]): 184.7 ± 11.1 SUV · min; maximum uptake (mGluR1 [2]; [7]): 2.3 SUV; AUC (mGluR1 [2]; hippocampus, conventional SA): 160.8 ± 4.6 SUV · min; maximum uptake (mGluR1 [2]; hippocampus, conventional SA): 2.0 SUV; AUC (mGluR1 [2]; hippocampus, ultra-high SA): 180.2 ± 10.9 SUV · min; maximum uptake (mGluR1 [2]; hippocampus, ultra-high SA): 2.2 SUV; AUC (mGluR1 [2]; pons, conventional SA): 56.0 ± 1.6 SUV · min; maximum uptake (mGluR1 [2]; pons, conventional SA): 0.9 SUV; AUC (mGluR1 [2]; pons, ultra-high SA): 62.7 ± 3.6 SUV · min; maximum uptake (mGluR1 [2]; pons, ultra-high SA): 0.9 SUV; AUC (mGluR1 [2]; striatum, conventional SA): 169.7 ± 6.0 SUV · min; maximum uptake (mGluR1 [2]; striatum, conventional SA): 2.1 SUV; AUC (mGluR1 [2]; striatum, ultra-high SA): 197.3 ± 11.1 SUV · min; maximum uptake (mGluR1 [2]; striatum, ultra-high SA): 2.4 SUV; AUC (mGluR1 [2]; [8]): 149.9 ± 6.7 SUV · min; maximum uptake (mGluR1 [2]; [8]): 1.8 SUV; AUC (mGluR1 [2]; [9]): 178.9 ± 10.8 SUV · min; maximum uptake (mGluR1 [2]; [9]): 2.2 SUV; AUC (mGluR1 [2]; thalamus, conventional SA): 188.4 ± 6.9 SUV · min; maximum uptake (mGluR1 [2]; thalamus, conventional SA): 2.3 SUV; AUC (mGluR1 [2]; thalamus, ultra-high SA): 214.2 ± 12.2 SUV · min; maximum uptake (mGluR1 [2]; thalamus, ultra-high SA): 2.6 SUV; delay of peak time of radioactivity (mGluR1 [2]; ultra-high SA compared with conventional SA, brain regions): 4 to 10 min; bindings reached, of the equilibrium state (mGluR1 [3]; both SA conditions, all brain regions, 90 min PET): 80–98%; equilibrium times (mGluR1 [3]; both SA conditions, all brain regions, after the injection): 100 to 150 min; estimated equilibrium time (mGluR1 [3]; cerebellum, conventional SA): 150 min; uptake of radioactivity reached, of equilibrium state (mGluR1 [3]; cerebellum, conventional SA, 90 min PET): 80%; estimated equilibrium time (mGluR1 [3]; cerebellum, ultra-high SA): 150 min; uptake of radioactivity reached, of equilibrium state (mGluR1 [3]; cerebellum, ultra-high SA, 90 min PET): 82%; estimated equilibrium time (mGluR1 [3]; [6]): 100 min; uptake of radioactivity reached, of equilibrium state (mGluR1 [3]; cingulate cortex, conventional SA, 90 min PET): 96%; estimated equilibrium time (mGluR1 [3]; [7]): 120 min; uptake of radioactivity reached, of equilibrium state (mGluR1 [3]; cingulate cortex, ultra-high SA, 90 min PET): 91%; estimated equilibrium time (mGluR1 [3]; hippocampus, conventional SA): 120 min; uptake of radioactivity reached, of equilibrium state (mGluR1 [3]; hippocampus, conventional SA, 90 min PET): 93%; estimated equilibrium time (mGluR1 [3]; hippocampus, ultra-high SA): 130 min; uptake of radioactivity reached, of equilibrium state (mGluR1 [3]; hippocampus, ultra-high SA, 90 min PET): 89%; estimated equilibrium time (mGluR1 [3]; pons, conventional SA): 110 min; uptake of radioactivity reached, of equilibrium state (mGluR1 [3]; pons, conventional SA, 90 min PET): 94%; estimated equilibrium time (mGluR1 [3]; pons, ultra-high SA): 100 min; uptake of radioactivity reached, of equilibrium state (mGluR1 [3]; pons, ultra-high SA, 90 min PET): 98%; estimated equilibrium time (mGluR1 [3]; striatum, conventional SA): 120 min; uptake of radioactivity reached, of equilibrium state (mGluR1 [3]; striatum, conventional SA, 90 min PET): 93%; estimated equilibrium time (mGluR1 [3]; striatum, ultra-high SA): 130 min; uptake of radioactivity reached, of equilibrium state (mGluR1 [3]; striatum, ultra-high SA, 90 min PET): 90%; estimated equilibrium time (mGluR1 [3]; [8]): 110 min; uptake of radioactivity reached, of equilibrium state (mGluR1 [3]; substantia nigra, conventional SA, 90 min PET): 94%; estimated equilibrium time (mGluR1 [3]; [9]): 100 min; uptake of radioactivity reached, of equilibrium state (mGluR1 [3]; substantia nigra, ultra-high SA, 90 min PET): 98%; estimated equilibrium time (mGluR1 [3]; thalamus, conventional SA): 120 min; uptake of radioactivity reached, of equilibrium state (mGluR1 [3]; thalamus, conventional SA, 90 min PET): 91%; estimated equilibrium time (mGluR1 [3]; thalamus, ultra-high SA): 140 min; uptake of radioactivity reached, of equilibrium state (mGluR1 [3]; thalamus, ultra-high SA, 90 min PET): 87%; Ki (mGluR1 [4]): 12.6 nM; [^11C]ITMM that reached the brain (mGluR1 [5]; healthy humans, first-in human PET study): 0.001–0.004 % of the injection dose/mL; total distribution volume (V T) (mGluR1 [5]; cerebellum (mGluR1-rich region)): 2.61 mL/cm^3; total distribution volume (V T) (mGluR1 [5]; pons (mGluR1-negligible region)): 0.52 mL/cm^3
